Measured values: US9062124B2, “GIP-based mixed agonists for treatment of metabolic disorders and obesity” (priority 2008, dated 2015)
Where a SMILES comes first, the peptide text is derived from it. [ ]: non-standard residue; d: D form. Dab = NCC[C@H](N)C(=O)O; Aib = CC(C)(N)C(=O)O

Key:
Assay type in all cases: cell-based
glucagon receptor = molecular target: T1, glucagon receptor (Homo sapiens, UniProt P47871); assay: cAMP synthesis functional assay (firefly luciferase reporter in HEK293 cells), glucagon receptor; details: for EC50: Glucagon Receptor EC50, cAMP luciferase reporter assay as in Example 16; for Glucagon Receptor relative activity: relative to the standard (Std.) EC50 of the same run
T1 construct: expressed in transfected cells; host or cells: HEK293

GLP-1 receptor = molecular target: T2, GLP-1 receptor (Homo sapiens, UniProt P43220); assay: cAMP synthesis functional assay (firefly luciferase reporter in HEK293 cells), GLP-1 receptor; details: for EC50: GLP-1 Receptor EC50, cAMP luciferase reporter assay as in Example 16; for GLP-1 Receptor relative activity: relative to the standard (Std.) EC50 of the same run
T2 construct: expressed in transfected cells; host or cells: HEK293

GIP receptor = molecular target: T3, GIP receptor (Homo sapiens, UniProt P48546); assay: cAMP synthesis functional assay (firefly luciferase reporter in HEK293 cells), GIP receptor; details: for EC50: GIP Receptor EC50, cAMP luciferase reporter assay as in Example 16; for GIP Receptor relative activity: relative to the standard (Std.) EC50 of the same run
T3 construct: expressed in transfected cells; host or cells: HEK293
T3 sequence (P48546 22-466): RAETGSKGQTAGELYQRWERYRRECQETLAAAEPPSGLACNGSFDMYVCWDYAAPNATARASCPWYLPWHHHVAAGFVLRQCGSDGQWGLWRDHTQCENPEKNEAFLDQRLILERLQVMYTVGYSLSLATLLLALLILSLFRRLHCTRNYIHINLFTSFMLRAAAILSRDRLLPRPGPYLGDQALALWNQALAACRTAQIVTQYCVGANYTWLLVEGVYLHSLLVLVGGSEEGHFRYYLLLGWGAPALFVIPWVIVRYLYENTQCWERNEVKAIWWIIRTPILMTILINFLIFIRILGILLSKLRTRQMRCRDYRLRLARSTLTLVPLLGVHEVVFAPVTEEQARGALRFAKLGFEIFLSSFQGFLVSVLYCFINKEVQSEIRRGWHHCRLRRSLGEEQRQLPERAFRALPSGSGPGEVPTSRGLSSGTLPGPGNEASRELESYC

[1] = test system: glucagon receptor, GLP-1 receptor or GIP receptor; assay: Agonist profile across receptors assigned from the cAMP reporter assay data; details: assigned from the in vitro EC50 data of Tables 1-4

T2 sequence (P43220 24-463, species assumed): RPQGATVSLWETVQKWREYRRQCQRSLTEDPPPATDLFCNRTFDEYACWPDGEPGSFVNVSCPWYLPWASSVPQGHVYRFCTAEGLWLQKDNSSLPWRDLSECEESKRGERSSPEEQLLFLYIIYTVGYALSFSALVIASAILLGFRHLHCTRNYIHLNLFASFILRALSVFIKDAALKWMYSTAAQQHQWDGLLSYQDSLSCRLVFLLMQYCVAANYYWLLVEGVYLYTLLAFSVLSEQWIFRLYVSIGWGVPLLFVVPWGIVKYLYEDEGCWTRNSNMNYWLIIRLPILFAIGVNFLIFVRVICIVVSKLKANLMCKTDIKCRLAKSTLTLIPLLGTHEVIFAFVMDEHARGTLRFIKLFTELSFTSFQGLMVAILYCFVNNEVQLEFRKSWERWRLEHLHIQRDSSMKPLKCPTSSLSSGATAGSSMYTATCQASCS
T1 sequence (P47871 26-477): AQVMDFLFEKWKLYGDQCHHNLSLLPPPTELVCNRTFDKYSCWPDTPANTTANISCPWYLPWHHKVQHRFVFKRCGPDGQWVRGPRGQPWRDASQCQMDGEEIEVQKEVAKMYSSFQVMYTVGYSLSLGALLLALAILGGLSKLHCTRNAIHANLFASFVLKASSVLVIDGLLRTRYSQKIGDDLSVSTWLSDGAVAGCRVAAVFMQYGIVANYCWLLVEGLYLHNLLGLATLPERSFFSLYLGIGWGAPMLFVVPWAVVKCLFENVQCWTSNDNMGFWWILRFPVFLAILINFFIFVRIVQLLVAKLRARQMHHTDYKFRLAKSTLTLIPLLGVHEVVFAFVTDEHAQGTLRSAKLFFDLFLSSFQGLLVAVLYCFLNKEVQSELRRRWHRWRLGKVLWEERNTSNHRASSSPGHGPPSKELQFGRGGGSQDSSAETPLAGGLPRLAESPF

| SMILES | EC50 (glucagon receptor) | Glucagon Receptor relative activity (glucagon receptor) | EC50 (GLP-1 receptor) | GLP-1 Receptor relative activity (GLP-1 receptor) | EC50 (GIP receptor) | GIP Receptor relative activity (GIP receptor) | receptor activity profile (glucagon / GLP-1 / GIP agonism) [1] |
| --- | --- | --- | --- | --- | --- | --- | --- |
| CCCCCCCCCCCCCC(=O)NCCCC[C@H](NC(=O)[C@@H](NC(=O)[C@H](Cc1ccccc1)NC(=O)[C@H](CCC(=O)O)NC(=O)C(C)(C)NC(=O)[C@H](C)NC(=O)[C@H](C)NC(=O)[C@H](CCC(N)=O)NC(=O)[C@H](CCCCN)NC(=O)[C@H](CC(=O)O)NC(=O)[C@H](CC(C)C)NC(=O)[C@H](Cc1ccc(O)cc1)NC(=O)[C@@H](NC(=O)[C@H](CO)NC(=O)[C@H](Cc1ccc(O)cc1)NC(=O)[C@H](CC(=O)O)NC(=O)[C@H](CO)NC(=O)[C@@H](NC(=O)[C@H](Cc1ccccc1)NC(=O)[C@@H](NC(=O)CNC(=O)[C@H](CCC(=O)O)NC(=O)C(C)(C)NC(=O)[C@@H](N)Cc1ccc(O)cc1)[C@@H](C)O)[C@@H](C)O)[C@@H](C)CC)C(C)C)C(=O)N[C@@H](Cc1c[nH]c2ccccc12)C(=O)N[C@@H](CC(C)C)C(=O)N[C@@H](CC(C)C)C(=O)N[C@@H](C)C(=O)NCC(=O)NCC(=O)N1CCC[C@H]1C(=O)N[C@@H](CO)C(=O)N[C@@H](CO)C(=O)NCC(=O)N[C@@H](C)C(=O)N1CCC[C@H]1C(=O)N1CCC[C@H]1C(=O)N1CCC[C@H]1C(=O)N[C@@H](CO)C(N)=O [mt-265] | 6.43 nM | 0.68% | 0.993 nM | 1.77% | 0.0624 nM | 13.62% | exhibited activity at the GIP, GLP-1, and glucagon receptors |
| CCCCCCCCCCCCCCCC(=O)NCCCC[C@H](NC(=O)[C@@H](NC(=O)[C@H](Cc1ccccc1)NC(=O)[C@H](CCC(=O)O)NC(=O)C(C)(C)NC(=O)[C@H](C)NC(=O)[C@H](C)NC(=O)[C@H](CCC(N)=O)NC(=O)[C@H](CCCCN)NC(=O)[C@H](CC(=O)O)NC(=O)[C@H](CC(C)C)NC(=O)[C@H](Cc1ccc(O)cc1)NC(=O)[C@@H](NC(=O)[C@H](CO)NC(=O)[C@H](Cc1ccc(O)cc1)NC(=O)[C@H](CC(=O)O)NC(=O)[C@H](CO)NC(=O)[C@@H](NC(=O)[C@H](Cc1ccccc1)NC(=O)[C@@H](NC(=O)CNC(=O)[C@H](CCC(=O)O)NC(=O)C(C)(C)NC(=O)[C@@H](N)Cc1ccc(O)cc1)[C@@H](C)O)[C@@H](C)O)[C@@H](C)CC)C(C)C)C(=O)N[C@@H](Cc1c[nH]c2ccccc12)C(=O)N[C@@H](CC(C)C)C(=O)N[C@@H](CC(C)C)C(=O)N[C@@H](C)C(=O)NCC(=O)NCC(=O)N1CCC[C@H]1C(=O)N[C@@H](CO)C(=O)N[C@@H](CO)C(=O)NCC(=O)N[C@@H](C)C(=O)N1CCC[C@H]1C(=O)N1CCC[C@H]1C(=O)N1CCC[C@H]1C(=O)N[C@@H](CO)C(N)=O [mt-266] | 18.6 nM | 0.23% | 1.53 nM | 1.15% | 0.164 nM | 5.19% | exhibited activity at the GIP, GLP-1, and glucagon receptors |
| CCCCCCCCCCCCCCCCCC(=O)NCCCC[C@H](NC(=O)[C@@H](NC(=O)[C@H](Cc1ccccc1)NC(=O)[C@H](CCC(=O)O)NC(=O)C(C)(C)NC(=O)[C@H](C)NC(=O)[C@H](C)NC(=O)[C@H](CCC(N)=O)NC(=O)[C@H](CCCCN)NC(=O)[C@H](CC(=O)O)NC(=O)[C@H](CC(C)C)NC(=O)[C@H](Cc1ccc(O)cc1)NC(=O)[C@@H](NC(=O)[C@H](CO)NC(=O)[C@H](Cc1ccc(O)cc1)NC(=O)[C@H](CC(=O)O)NC(=O)[C@H](CO)NC(=O)[C@@H](NC(=O)[C@H](Cc1ccccc1)NC(=O)[C@@H](NC(=O)CNC(=O)[C@H](CCC(=O)O)NC(=O)C(C)(C)NC(=O)[C@@H](N)Cc1ccc(O)cc1)[C@@H](C)O)[C@@H](C)O)[C@@H](C)CC)C(C)C)C(=O)N[C@@H](Cc1c[nH]c2ccccc12)C(=O)N[C@@H](CC(C)C)C(=O)N[C@@H](CC(C)C)C(=O)N[C@@H](C)C(=O)NCC(=O)NCC(=O)N1CCC[C@H]1C(=O)N[C@@H](CO)C(=O)N[C@@H](CO)C(=O)NCC(=O)N[C@@H](C)C(=O)N1CCC[C@H]1C(=O)N1CCC[C@H]1C(=O)N1CCC[C@H]1C(=O)N[C@@H](CO)C(N)=O [mt-267] | 62 nM | 0.07% | 2.09 nM | 0.84% | 1.31 nM | 0.65% | exhibited activity at the GIP, GLP-1, and glucagon receptors |
| CC[C@H](C)[C@H](NC(=O)[C@H](CO)NC(=O)[C@H](Cc1ccc(O)cc1)NC(=O)[C@H](CC(=O)O)NC(=O)[C@H](CO)NC(=O)[C@@H](NC(=O)[C@H](Cc1ccccc1)NC(=O)[C@@H](NC(=O)CNC(=O)[C@H](CCC(N)=O)NC(=O)C(C)(C)NC(=O)[C@@H](N)Cc1ccc(O)cc1)[C@@H](C)O)[C@@H](C)O)C(=O)N[C@@H](Cc1ccc(O)cc1)C(=O)N[C@@H](CC(C)C)C(=O)N[C@@H](CC(=O)O)C(=O)N[C@@H](CCCN)C(=O)N[C@@H](CCC(N)=O)C(=O)N[C@@H](C)C(=O)N[C@@H](C)C(=O)NC(C)(C)C(=O)N[C@@H](CCC(=O)O)C(=O)N[C@@H](Cc1ccccc1)C(=O)N[C@H](C(=O)N[C@@H](CC(N)=O)C(=O)N[C@@H](Cc1c[nH]c2ccccc12)C(=O)N[C@@H](CC(C)C)C(=O)N[C@@H](CC(C)C)C(=O)N[C@@H](C)C(=O)NCC(=O)NCC(=O)N1CCC[C@H]1C(=O)N[C@@H](CO)C(=O)N[C@@H](CO)C(=O)NCC(=O)N[C@@H](C)C(=O)N1CCC[C@H]1C(=O)N1CCC[C@H]1C(=O)N1CCC[C@H]1C(=O)N[C@@H](CO)C(=O)N[C@@H](CS)C(N)=O)C(C)C [mt-275] |  | 62.15% | 0.0068 nM | 104.41% |  | 112.10% | exhibited activity at the GIP, GLP-1, and glucagon receptors |
| CC[C@H](C)[C@H](NC(=O)[C@H](CO)NC(=O)[C@H](Cc1ccc(O)cc1)NC(=O)[C@H](CC(=O)O)NC(=O)[C@H](CO)NC(=O)[C@@H](NC(=O)[C@H](Cc1ccccc1)NC(=O)[C@@H](NC(=O)CNC(=O)[C@H](CCC(N)=O)NC(=O)C(C)(C)NC(=O)[C@@H](N)Cc1ccc(O)cc1)[C@@H](C)O)[C@@H](C)O)C(=O)N[C@@H](Cc1ccc(O)cc1)C(=O)N[C@@H](CC(C)C)C(=O)N[C@@H](CC(=O)O)C(=O)N[C@@H](CCN)C(=O)N[C@@H](CCC(N)=O)C(=O)N[C@@H](C)C(=O)N[C@@H](C)C(=O)NC(C)(C)C(=O)N[C@@H](CCC(=O)O)C(=O)N[C@@H](Cc1ccccc1)C(=O)N[C@H](C(=O)N[C@@H](CC(N)=O)C(=O)N[C@@H](Cc1c[nH]c2ccccc12)C(=O)N[C@@H](CC(C)C)C(=O)N[C@@H](CC(C)C)C(=O)N[C@@H](C)C(=O)NCC(=O)NCC(=O)N1CCC[C@H]1C(=O)N[C@@H](CO)C(=O)N[C@@H](CO)C(=O)NCC(=O)N[C@@H](C)C(=O)N1CCC[C@H]1C(=O)N1CCC[C@H]1C(=O)N1CCC[C@H]1C(=O)N[C@@H](CO)C(=O)N[C@@H](CS)C(N)=O)C(C)C [mt-276] (H-Y[Aib]QGTFTSDYSIYLD[Dab]QAA[Aib]EFVNWLLAGGPSSGAPPPSC-NH2; N-terminus assumed) |  | 77.65% |  | 107.58% | 0.008 nM | 173.75% | exhibited activity at the GIP, GLP-1, and glucagon receptors |
| CC[C@H](C)[C@H](NC(=O)[C@H](CO)NC(=O)[C@H](Cc1ccc(O)cc1)NC(=O)[C@H](CC(=O)O)NC(=O)[C@H](CO)NC(=O)[C@@H](NC(=O)[C@H](Cc1ccccc1)NC(=O)[C@@H](NC(=O)CNC(=O)[C@H](CCC(N)=O)NC(=O)C(C)(C)NC(=O)[C@@H](N)Cc1ccc(O)cc1)[C@@H](C)O)[C@@H](C)O)C(=O)N[C@@H](Cc1ccc(O)cc1)C(=O)N[C@@H](CC(C)C)C(=O)N[C@@H](CC(=O)O)C(=O)N[C@@H](CCCCN)C(=O)N[C@@H](CCC(N)=O)C(=O)N[C@@H](C)C(=O)N[C@@H](C)C(=O)NC(C)(C)C(=O)N[C@@H](CCC(=O)O)C(=O)N[C@@H](Cc1ccccc1)C(=O)N[C@H](C(=O)N[C@@H](CC(N)=O)C(=O)N[C@@H](Cc1c[nH]c2ccccc12)C(=O)N[C@@H](CC(C)C)C(=O)N[C@@H](CC(C)C)C(=O)N[C@@H](C)C(=O)NCC(=O)NCC(=O)N1CCC[C@H]1C(=O)N[C@@H](CO)C(=O)N[C@@H](CO)C(=O)NCC(=O)N[C@@H](C)C(=O)N1CCC[C@H]1C(=O)N1CCC[C@H]1C(=O)N1CCC[C@H]1C(=O)N[C@@H](CO)C(=O)N[C@@H](CCCCN)C(N)=O)C(C)C [mt-280] (H-Y[Aib]QGTFTSDYSIYLDKQAA[Aib]EFVNWLLAGGPSSGAPPPSK-NH2; N-terminus assumed) | 0.0677 nM | 74.74% | 0.0126 nM | 153.17% |  | 159.06% | exhibited activity at the GIP, GLP-1, and glucagon receptors |
